For test [1], the target named is T1, LapD (LapD-sfGFP, full-length), with LapG (Pseudomonas fluorescens, UniProt Q3KK31).
T1 construct: full-length transmembrane LapD with C-terminal TEV site-sfGFP-His6, E. coli, detergent-solubilized (LMNG/CHAPS); LapG without signal peptide carrying para-azidophenylalanine at V205, sfGFP cut off; with Periplasmic cysteine protease LapG
T1 sequence (Q3KK31 1-648): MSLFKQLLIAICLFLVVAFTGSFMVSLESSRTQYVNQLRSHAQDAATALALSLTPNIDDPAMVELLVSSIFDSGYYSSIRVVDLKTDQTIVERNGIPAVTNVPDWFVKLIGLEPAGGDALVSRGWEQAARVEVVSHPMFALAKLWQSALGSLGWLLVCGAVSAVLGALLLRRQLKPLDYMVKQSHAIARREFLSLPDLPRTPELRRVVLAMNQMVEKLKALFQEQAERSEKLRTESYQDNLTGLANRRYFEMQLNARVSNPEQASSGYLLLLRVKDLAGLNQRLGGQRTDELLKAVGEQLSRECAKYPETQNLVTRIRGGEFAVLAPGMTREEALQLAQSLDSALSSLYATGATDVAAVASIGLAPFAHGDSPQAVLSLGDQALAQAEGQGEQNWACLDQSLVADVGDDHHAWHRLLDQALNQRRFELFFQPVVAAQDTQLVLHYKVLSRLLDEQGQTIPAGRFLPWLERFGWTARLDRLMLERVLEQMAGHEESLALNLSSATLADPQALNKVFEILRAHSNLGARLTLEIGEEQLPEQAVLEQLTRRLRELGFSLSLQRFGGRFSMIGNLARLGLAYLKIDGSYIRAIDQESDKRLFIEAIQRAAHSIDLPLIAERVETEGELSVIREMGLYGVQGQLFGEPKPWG
T1 sequence (Q3KK32 50-251 partner): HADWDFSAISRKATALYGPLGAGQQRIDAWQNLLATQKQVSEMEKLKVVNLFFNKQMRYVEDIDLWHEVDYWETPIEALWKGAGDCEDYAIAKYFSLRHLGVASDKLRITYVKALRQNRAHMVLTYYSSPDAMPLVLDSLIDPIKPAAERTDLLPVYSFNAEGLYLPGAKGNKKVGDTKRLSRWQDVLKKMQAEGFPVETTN
Put plainly: UV cross-linking of LapG-V205pAzF to LapD-sfGFP, in-gel fluorescence. In kind it is binding. Particulars: 2 μM LapD-sfGFP, 1 μM LapG, 2.5 mM CaCl2, pH 7.5, room temperature; detergent-solubilized; concentration range of sharp transition, not an EC50.

The target of test [2] is full-length P. fluorescens LapD fused C-terminally to superfolder GFP (LapD-sfGFP), wild type (P. fluorescens) (UniProt Q3KK31). The test can be described thus: cross-linking.

Values joined by “and” are separate entries in the source; they are usually repeats but may differ in a detail not shown here. Equal values may be shown once.

As for `Nc1nc2c(ncn2[C@@H]2O[C@@H]3COP(=O)(O)O[C@H]4[C@@H](O)[C@H](n5cnc6c(=O)[nH]c(N)nc65)O[C@@H]4COP(=O)(O)O[C@H]3[C@H]2O)c(=O)[nH]1` [c-di-GMP], the “switch in LapG cross-linking” value in test [1] fell in the range of 0.75 to 1 µM.
As to “non-fluorescent P. fluorescens LapG with pAzF at Y206 (enzyme)”, the other (LapG:LapD molar ratio) in test [2] is 0.3 and 0.5.

The values are drawn from article PMC4359373, “Mechanistic insight into the conserved allosteric regulation of periplasmic proteolysis by the signaling molecule cyclic-di-GMP” (eLife, 2014).
